Laboratory results published in patent US20190351012A1, “TARGETING OF INTERFERON-STIMULATED GENE EXPRESSION TO TREAT INTERFERONOPATHIES” (New York University, priority 2018, published 2019).
“Also recorded” adds a separate entry of the source.

System: BRD4
Assay: Nuclear BRD4 distribution (soluble versus chromatin-bound) by differential salt extraction and western blot in HeLa cells
Format: cell-based, human
Conditions: western blot
Experimental: FIG. 5. BRD4 is required for ISG transcription. (A) HeLa cells were either left untreated or treated with IFN-α for 1 h in presence or absence of JQ-1 or HMBA. Using primers spanning intron-exon junctions, nuclear pre-mRNA for ISG54 and γ-actin were quantified by real-time RT-PCR and normalized to GAPDH mRNA. (B) Control and BRD4 KD cells were either left untreated or treated with IFN-α. ISG56 and BRD4 mRNA were quantified using real-time RT-PCR and normalized to GAPDH mRNA abundance. (C) HEK293T cells were transfected with pcDNA3 (Ctl) or Brd4 expression constructs along with a luciferase reporter driven by the ISG54 promoter. 24 h after transfection, cells were either left untreated or treated with IFN-α in the absence or presence of TSA before being assayed for luciferase activity (left panel). HEK293T cells were transfected with pcDNA3 (Ctl) or Brd4 expression constructs along with a luciferase reporter driven by the constitutive RSV promoter and assayed for luciferase activity after 36 h (right panel). (D) Hela cells were either left untreated or treated with IFN-α for 2 h in presence or absence of TSA or Anacardic acid (AA). Nuclear proteins were extracted as a soluble fraction and a chromatin bound fraction and analyzed by western blotting using anti-BRD4, H4-AcK5 and actin antibodies. […] (F) ChIP assays were performed with antibodies against BRD4 and recovered ISG56, Mx1 and IRF9 TSS spanning sequences were quantified by real-time PCR, normalized to input, and represented as fold enrichment over the untreated sample.
BRD4 is recruited to active promoters along with polymerase, and it associates with elongating polymerase to affect transcriptional elongation. […] Cells were treated with IFN in the presence or absence of TSA, and nuclear BRD4 was quantified in soluble versus chromatin-bound fractions by differential salt extraction (FIG. 5D). Most BRD4 was detected in the soluble nucleoplasm fraction in untreated or IFN-treated cells (FIG. 5D, compare lanes 1 and 2 with 5 and 6). […]
Nuclear extracts were prepared and analyzed by immunoblotting as follows. […]

CC(/C=C/C(=O)NO)=C\[C@@H](C)C(=O)c1ccc(N(C)C)cc1 [TSA, Trichostatin A]
soluble nuclear BRD4 (IFN-α 2 h): undetectable; also recorded: depletion
histone acetylation (acetylated H4K5): large increase
